Counter-ions that a name gives are not always drawn.
What follows are compounds tested against T1, HIV protease (Human immunodeficiency virus type 1 group M subtype B, UniProt P04585) (assay: HIV Protease Assay). Details: 10 μM inhibitor, 4% DMSO, 450 μM substrate, pH 5.5, 30 minutes at 37° C., RP-HPLC.
T1 construct: and purified protease
Type: biochemical
Protocol: An HIV protease standard assay was performed in a 60 μl reaction medium containing 50 mM sodium acetate, pH 5.5, 100 μg/ml bovine serum albumen,450 μM substrate (H2 N-Val-Ser-Gln-Asn-(β-naphthyl-alanine)-Pro-Val-Ile-OH), and purified protease. The reaction medium was incubated for 30 minutes at 37° C., quenched by the addition of 140 μl 5% H3 PO4, then analyzed by reverse phase HPLC using UV220 detection. In a typical control assay, 7% of the substrate was hydrolyzed. Aminediol inhibitors of the present invention, listed in the following Table 1, were then employed in the assay, for which purpose they were prepared as a […] solution in DMSO, then diluted to 30 μM with 50 mM sodium acetate/bovine serum albumen. This working stock was then diluted three-fold into the protease reaction medium, for a final concentration of 10 μM inhibitor and 4% DMSO.

Point of comparison: `CC(C)(C)OC(=O)N[C@@H](Cc1ccccc1)[C@H](O)CNC[C@@H](O)[C@H](Cc1ccccc1)NC(=O)C(C)(O)C(F)(F)F` (single isomer, unassigned; isomer b) [Compound 294, [1S-[1R*,2S*(2S*,3R*)]]-[2-Hydroxy-3-[2-hydroxy-1-oxo-2-(trifluoromethyl)propyl]amino]-4-phenylbutyl]amino]-1-(phenylmethyl)propyl]carbamic acid, 1,1-dimethylethylester (isomer B)], “HIV Protease % Inhibition at 10 μM” value 89%. Against it:
- CC(C)(C)OC(=O)N[C@@H](Cc1ccccc1)[C@H](O)CNC[C@@H](O)[C@H](Cc1ccccc1)NC(=O)C1(O)CCc2ccccc21 (single isomer, unassigned; isomer a) [Compound 375, [1S-[1R*,2S*(2S*, 3R*)]]-[3-[[3-]](2,3-Dihydro-1-hydroxy-1H-inden-1-yl)carbonyl]amino]-2-hydroxy-4-phenylbutyl]amino]-2-hydroxy-1-(phenylmethyl)-propyl]carbamic acid, 1,1-dimethylethyl ester, isomer A] — higher, 98%
- CC(C)(C)OC(=O)N[C@@H](Cc1ccccc1)[C@H](O)CNC[C@@H](O)[C@H](Cc1ccccc1)NC(=O)C(C)(O)c1ccccn1 (single isomer, unassigned; isomer b) [Compound 382, [1S-[1R*,2S*(2S*, 3R*)]]-[2-Hydroxy-3-[[2-hydroxy-3-[[2-hydroxy-1-oxo-2-(2-pyridinyl)propyl]amino]-4-phenylbutyl]amino]-1-(phenylmethyl)propyl]carbamic acid, 1.1-dimethylethyl ester, isomer B] — the same, 89%

Same assay, conditions: pH 5.5, 10 μM inhibitor, 4% DMSO, 450 μM substrate, pH 5.5, 30 minutes at 37° C., RP-HPLC; read-out: HIV Protease % Inhibition at 10 μM

Point of comparison: `CC(C)[C@H](NC(=O)OCc1ccccc1)C(=O)N[C@@H](Cc1ccccc1)[C@@H](O)CNC[C@H](O)[C@H](Cc1ccccc1)NC(=O)OC(C)(C)C` [Compound 117, [S-[1R*,2R*(2R*,3R*)]]-N-[3-[[3-[[(1,1-Dimethylethoxy)carbonyl]amino]-2-hydroxy-4-phenylbutyl]amino]-2-hydroxy-1-(phenylmethyl)propyl]-N^2-[(phenylmethoxy)-carbonyl]-L-valinamide], inhibition at 10 µM 14%. Against it:
- CN(Cc1ccccc1)C(=O)N[C@@H](Cc1ccccc1)[C@H](O)CNC[C@@H](O)[C@H](Cc1ccccc1)NC(=O)OC(C)(C)C [Compound 69, [1S-[1R*,2S*(2S*,3R*)]]-2-Hydrox3-[[2-hydroxy-3-[[[methyl(phenylmethyl)-amino]carbonyl]amino]-4-phenylbutyl]amino]-1-(phenylmethyl)propyl]carbamic acid, 1,1-dimethylethyl ester] — lower, 11%
- CC(C)(C)OC(=O)N[C@@H](Cc1ccccc1)[C@H](O)CNC[C@@H](O)[C@H](Cc1ccccc1)NC(=O)OCc1nc2ccccc2[nH]1 [Compound 289, [R-(R*,S*)]-[Iminobis[2-hydroxy-1-(phenylmethyl)-3,1-propanediyl)]biscarbamic acid, (1H-benzimidazol-2-yl)methyl 1,1-dimethylethyl ester] — higher, 53%
- CC(C)(C)OC(=O)N[C@@H](Cc1ccccc1)[C@H](O)CNC[C@@H](O)[C@H](Cc1ccccc1)NC(=O)OC(C)(C)COCc1ccccc1 [Compound 157, [1S-(1R*,2S*)]-[Iminobis[2-hydroxy-1-(phenylmethyl)-3,1-propanediyl)]biscarbamic acid, 1,1-dimethylethyl 1,1-dimethyl-2-(phenylmethoxy)-ethyl ester] — higher, 90%
- CO[C@H](CNC[C@@H](O)[C@H](Cc1ccccc1)NC(=O)OC(C)(C)C)[C@H](Cc1ccccc1)NC(=O)OC(C)(C)C [Compound 142, [1S-[1R*,2S*(2S*,3R*)]]-[3-[[3-[[(1,1-Dimethylethoxy)carbonyl]amino]-2-hydroxy-4-phenylbutyl]amino]-2-methoxy-1-(phenylmethyl)propyl]carbamic acid 1,1-dimethylethyl ester] — higher, 30%
- CC(C)(C)OC(=O)N[C@@H](Cc1ccccc1)[C@H](O)CNC[C@@H](O)[C@H](Cc1ccccc1)NC(=O)OC(C)(C)CCCN [Compound 180, [1S-(1R*,2S*)]-[Iminobis[2-hydroxy-1-(phenylmethyl)-3,1-propanediyl]biscarbamic acid, 4-amino-1,1-dimethylbutyl 1,1-dimethylethyl ester, fumarate (2:3) salt] — higher, 73%
- CNC(=O)C(O)(C(=O)N[C@@H](Cc1ccccc1)[C@H](O)CNC[C@@H](O)[C@H](Cc1ccccc1)NC(=O)OC(C)(C)C)C(C)(C)C (single isomer, unassigned; isomer a) [Compound 384, [1S-[1R*,2S*(2S*, 3R*)]]-[3-[[3-[[2-Hydroxy-3,3-dimethyl-2-[(methylamino)carbonyl]-1-oxobutyl]amino]-2-hydroxy-4-phenylbutyl]amino]-2-hydroxy-1-(phenylmethyl)propyl]carbamic acid, 1,1-dimethylethyl ester, isomer A] — higher, 99%
- CC(C)(C)OC(=O)N[C@@H](Cc1ccccc1)C(=O)N[C@@H](Cc1ccccc1)[C@H](O)CNC[C@@H](O)[C@H](Cc1ccccc1)NC(=O)OC(C)(C)C [Compound 56, [S-[1R*,2S*(2S*,3R*)]-N^2-[(1,1-Dimethylethoxy)carbonyl]-N-[3-[[3-[[(1,1-dimethlethoxy)carbonyl]amino]-2-hydroxy-4-phenylbutyl]-amino]-2-hydroxy-1-(phenylmethyl)propyl]-L-phenylalaninamide] — higher, 47%
- CC(C)(C)OC(=O)N[C@@H](Cc1ccccc1)[C@H](O)CNC[C@@H](O)[C@H](Cc1ccccc1)NC(=O)OC(CO)c1cccnc1 (stereo partly drawn) [Compound 277, [R-(R*,S*)]-[Iminobis[2-hydroxy-1-(phenylmethyl)-3,1-propanediyl)]biscarbamic acid, 1,1-dimethylethyl-2-hydroxy-1-(3-pyridinyl)ethyl ester] — higher, 67%
- CC(C)(C)OC(=O)N[C@@H](Cc1ccccc1)[C@H](O)CNC[C@@H](O)[C@H](Cc1ccccc1)NC(=O)C1c2ccccc2CN1C=O (stereo partly drawn) [Compound 270, [1S-[1R*,2S*(2S*,3R*)]]-[3-[[3-[[(2-Formyl-2,3-dihydro-1H-isoindol-1-yl)carbonyl]amino]-2-hydroxy-4-phenylbutyl]amino]-2-hydroxy-1-(phenylmethyl)-propyl]carbamic acid 1,1-dimethylethyl ester] — higher, 27%
- CC(C)[C@H](N)C(=O)N[C@@H](Cc1ccccc1)[C@H](O)CNC[C@@H](O)[C@H](Cc1ccccc1)NC(=O)OC(C)(C)C [Compound 59, [S-[1R*,2S*(2S*,3R*)-N-[3 [[3-[[(1,1-Dimethylethoxy)carbonyl]amino]-2-hydroxy-4-phenylbutyl]amino]-2-hydroxy-1-(phenylmethyl)-propyl-L-valinamide] — higher, 45%
- CC(C)(C)OC(=O)N[C@@H](Cc1ccccc1)[C@H](O)CNC[C@@H](O)[C@H](Cc1ccccc1)N1CC(C)(C)OC1=O [Compound 140, [1S-[1R*,2S*(2S*,3R*)]]-[3-[[3-(5,5-Dimethyl-2-oxo-3-oxazolidinyl)-2-hydroxy-4-phenylbutyl]amino]-2-hydroxy-1-(phenylmethyl)-propyl]carbamic acid, 1,1-dimethylethyl ester] — higher, 61%
- CC(C)(C)OC(=O)N[C@@H](Cc1ccccc1)[C@H](O)CNC[C@@H](O)[C@H](Cc1ccccc1OCc1ccccc1)NC(=O)OC(C)(C)C [Compound 348, [1S-[1R*,2S*(2S*,3R*)]]-[3-[[(3-[[(1,1-Dimethylethoxy)carbonyl]amino]-2-hydroxy-4-[2-(phenylmethoxy)phenyl]butyl]amino]-2-hydroxy-1-(phenylmethyl)propyl]carbamic acid, 1,1-dimethylethyl ester] — higher, 99%
- CC(C)(C)OC(=O)N[C@@H](Cc1ccccc1)[C@H](O)CNC[C@@H](O)[C@H](Cc1ccccc1)NC(=O)[C@@H]1CCCN1C(=O)OCc1ccccc1 [Compound 102, [S-[1R*,2S*(2S*,3R*)[]-N-[[[3-[[3-[[(1,1-Dimethylethoxy)carbonyl]amino]-2-hydroxy-4-phenylbutyl]amino]-2-hydroxy-1-(phenylmethyl)-propyl]-N^2-[phenylmethoxy)carbonyl]-L-prolinamide] — higher, 47%
- CC(C)(C)OC(=O)N[C@@H](Cc1ccccc1)[C@H](O)CNC[C@@H](O)[C@H](Cc1ccccc1)NC(=O)O[C@@H]1COC[C@H]1O [Compound 317, [1S-(1R*,2S*), (3R-trans)l-[Iminobis[2-hydroxy-1-(phenylmethyl)-3,1-propanediyl]]bis[carbamic acid], 4-hydroxy-3-tetrahydrofuranyl 1,1-dimethylethyl ester] — higher, 85%
- CC(C)(C)OC(=O)N[C@@H](Cc1ccccc1)C(=O)CN(Cc1ccccc1)CC(O)[C@H](Cc1ccccc1)NC(=O)OC(C)(C)C (stereo partly drawn) [Compound 195, [1S-[1R*(3R*)]]-[3-[[3-[[(1,1-Dimethylethoxy)carbonyl]amino]-2-hydroxy-4-phenylbutyl]-(phenylmethyl)amino]-2-oxo-1-(phenylmethyl)propyl]-carbamic acid, 1,1-dimethylethyl ester] — lower, 0%
- CC(C)(C)OC(=O)N[C@@H](Cc1ccccc1)[C@H](O)CNC[C@@H](O)[C@H](Cc1ccccc1)NC(=O)C1c2ccccc2CC1O (stereo partly drawn) [Compound 237, [1S-[1R*,2S*[2S*,3R*(trans)]]]-[3-[[3-[[(2,3-Dihydro-2-hydroxy-1H-inden-1-yl)carbonyl]amino]-2-hydroxy-4-phenylbutyl]amino]-2-hydroxy-1-(phenylmethyl)propyl]carbamic acid, 1,1-dimethylethyl ester] — higher, 54%

— patent publication US5760036A, “Aminediol protease inhibitors” (E. R. Squibb & Sons, Inc., priority 1995, dated 1998)
